Laboratory results taken from US8158560B2, “Insecticidal arylpyrroline compounds” (Bayer CropScience AG, priority 2009, dated 2012).
Values joined by “and” are separate entries in the source; they are usually repeats but may differ in a detail not shown here. Equal values may be shown once.

Columns and labels:
Type in all cases: in vivo
[1] = tested on: Myzus persicae-resistant strain, mixed population; test: Myzus persicae spray test (MYZUPE); conditions: 4 ppm, 6 dat
Procedure: Myzus persicae—Spray Test (MYZUPE)
Insect: Myzus persicae-resistant strain, mixed population
Plant: Eggplant seedling (Solanum melongena var. Senryo 2gou) 2 leaf age (4-5 weeks after sowing), transplanted into vinyl pots of 60 mm diameter
Solvent pre-mixture: Sorpol® SD: Sorpol® BDB:Dimethylformamide=3:3:14; 10 mg a.i. is solved with 0.05 ml solvent pre-mixture. Water for dilution contains RME and AS (1000 ppm each) or 0.1% of spreader. Solutions are diluted at the rate of 1:5 for limit concentration determination.
Procedure: 1 day before treatment aphids are inoculated onto the testing plants, about 50 aphids per leaf, 100 for 1 pot. A paper label is placed on each pot. Solutions are sprayed directly onto both insects and plants. After drying pots are placed in the greenhouse at 20° C.-25° C. and 50-60% relative humidity.
After the specified period of time the mortality in % is determined and the rate of death is calculated according to the following scheme/criteria: […]

[2] = tested on: Nephotettix cincticeps-MR, resistant strain, 3rd-4th instar nymphs; test: Nephotettix cincticeps spray test (NEPHCI); conditions: 20 ppm, 7 dat
Procedure: Nephotettix cincticeps-Spray Test (NEPHCl)
Insect: Nephotettix cincticeps-MR, resistant strain, 3rd-4th instar nymphs from own culture
Plant: Rice seedlings (Oryza sativa var. Tamanishiki)
Material: ST-method container (200 ml desiccant polystyrene bottle) with a hole in the bottom sealed with metal mesh. The lid has a pit inside to keep desiccant, and it is used to sow rice seeds. The bottle is used upside down as “cover”, the lid with seedling is called “base”. Plastic stand-board with magnet labels to line the ST Bases up (“Stand”)
Solvent pre-mixture: Sorpol® SD: Sorpol® BDB:Dimethylformamide=3:3:14 10 mg a i. is solved with 0.05 ml solvent pre-mixture. Water for dilution contains RME and AS (1000 ppm each) or 0.1% of spreader. Solutions are diluted at the rate of 1:5 for limit concentration determination.
Procedure: On a pit in the center of a base (originally the desiccant space) pieces of paper towel are placed. 20-30 germinated rice seeds are sown on the paper and moistened with water. The base is covered with a plastic cup and kept in an incubator at 30° C. for five days.
The base with rice seedlings is placed on the Stand. Each base is sprayed with the solution.
After drying twelve 3rd-4th instar nymphs of Nephotettix cincticeps-MR are put on the base and confined with the cover. The ST containers on the Stands are kept in the testing room at 25° C. and 50-60% r.h., 16L8D lighting conditions.
After the specified period of time mortality in % is determined by rating according to the following scheme/criteria: Counting living moving insects, calculate mortality in % by the formula: […]

[3] = tested on: Adoxophyes honmai; test: Adoxophyes honmai test (ADXPFA), treated artificial diet; conditions: 0.8 ppm, 2 dat
Procedure: Procedure: Broccoli seedlings of 4-5 leaf stage planted in a vinyl pot (9 cm diameter) are sprayed with the solution. After drying half of the leaves of the plants are cut and put into a A-PET cup. Ten larvae of Plutella xylostella L3 are released in the cup and the dish is placed at 25° C. After 4 days another half leaf is cut and added to the dish. After the specified period of time mortality in % is determined according to the figures of mortality used for evaluation. • 1 larva dead: 20% Efficacy • 5 larvae dead: 100% Efficacy Adoxophyes honmai—Test (ADXPFA)
Insect: Adoxophyes honmai from own culture
Material: 1 A-PET cup with lid
Food agent: 4.5 g of artificial diet powder Silkmate-Kantan-3®
(§1) Solvent pre-mixture: Sorpol® SD: Sorpol® BDB:Dimethylformamide=3:3:14
10 mg a i. is solved with 0.05 ml solvent pre-mixture. Water for dilution contains RME and AS (1000 ppm each) or 0.1% of spreader. Solutions are diluted at the rate of 1:5 for limit concentration determination.
Procedure: 4.5 g of artificial diet powder is put into a PET cup (10 cm diameter, 5 cm depth). The powder was leveled to make a layer in the bottom of the cup. […]
(§2) After the specified period of time mortality in % is determined according to the following criteria: • 1 larva dead: 20% Efficacy • 5 larvae dead: 100% Efficacy Frankliniella occidentalis—Spray-Test (FRANOC)

[4] = tested on: Frankliniella occidentalis; test: Frankliniella occidentalis spray test (FRANOC); conditions: 0.16 ppm, 7 dat
Procedure: as §2
Insect: Frankliniella occidentalis from own culture
Plant: Cucumber seedlings, cotyledon stage
as §1
(§3) 10 mg a i. is solved with 0.05 ml solvent pre-mixture.
(§4) Water for dilution contains RME and AS (1000 ppm each) or 0.1% of spreader. Solutions are diluted at the rate of 1:5 for limit concentration determination.
Procedure: The solution is sprayed to a cucumber seedling. After drying, the plant is placed in a plastic stand. About fifty 1st-instar larvae were inoculated to the plant and covered with a cage. The plant is stored at 25° C.
After the specified period of time % efficacy is determined by rating feeding damages on the plant according to the following criteria: […]

[5] = tested on: Aulacophora femoralis 2nd instar larvae; test: Aulacophora femoralis spray test (AUACFE); conditions: 0.8 ppm, 6 dat, rating scheme b297
Procedure: Aulacophora femoralis—Spray Test (AUACFE)
Insect: Aulacophora femoralis 2nd instar larvae from own culture;
Material: PET cups with 5 ml soil and A-PET lids
Plant: Cucumber (Cucumis sativus var. Hanshiro), cotyledon stage; 1 plant per pot;
Solvent pre-mixture: Sorpol® SD: Sorpol® BDB:Dimethylformamide=3:3:14;
10 mg a.i. solved with 0.05 ml solvent pre-mixture. Water for dilution contains RME and AS (1000 ppm each) or 0.1% of spreader. Solutions are diluted at the rate of 1:5 for limit concentration determination.
Procedure: Solutions are sprayed onto a plant. After drying, plants are cut and put on the soil in the testing cup. Five larvae L2 are released into each testing cup.
The testing cup is covered with the lid and stored at 25° C. and 50-60% r.h., 16L8D lighting conditions.
After the specified period of time, the mortality in % is determined according to the following scheme/criteria: […]

[6] = tested on: Panonychus citri; test: Panonychus citri spray test (METTCI); conditions: 4 ppm, 7 dat, rating scheme b306
Procedure: Panonychus citri—Spray Test (METTCI)
Plant: Citrus plants, ca 8 cm height
as §1, §3, §4
Procedure: 1 day before treatment mites were inoculated onto potted citrus plants, about 50 adults and some nymphs for 1 pot. The test solution is sprayed directly onto both mites and plants. After drying pots are stored at 25° C.
After the specified period of time mortality in % is determined by rating according to the following scheme/criteria.

[7] = tested on: Bemisia tabacii biotype B; test: Bemisia tabacii spray test (BEMIAR); conditions: 100 ppm, 14 dat, rating scheme b324
Procedure: Bemisia tabacii—Spray-Test (BEMIAR)
Insect: Bemisia tabacii biotype B
Plant: Tomato seedlings, 5 leaf stage in vinyl pots of 40 mm diameter
as §1
10 mg a.i. is solved with 0.05 ml solvent pre-mixture. Water for dilution contains RME and AS (1000 ppm each) or 0.1% of spreader. Solutions are diluted at the rate of 1:5 for limit concentration determination.
Procedure: Solutions are sprayed to the plants. After drying treated pots are placed in the greenhouse where breeding BEMIAR for an infection-time of 24 h. Then the plants is placed in the testing room at 25° C. and 50-60% r.h., 16L8D lighting conditions.
After the specified period of time mortality in % is determined according to the following scheme/criteria: […]

| Compound | Efficacy/day(s) of treatment [1] | Efficacy/day(s) of treatment [2] | Efficacy/day(s) of treatment [3] | Efficacy/day(s) of treatment [4] | Efficacy/day(s) of treatment ([1]; rating scheme) | Efficacy/day(s) of treatment [5] | Efficacy/day(s) of treatment [6] | Efficacy/day(s) of treatment [7] |
| --- | --- | --- | --- | --- | --- | --- | --- | --- |
| Cc1cc(C2=NOC(c3cc(C(F)(F)F)cc(C(F)(F)F)c3)(C(F)(F)F)C2)ccc1C(=O)NC1C[S+]([O-])C1 (stereo not drawn) [ExNo A-23 of WO 2009/080250, reference compound] | 60%/6 dat | 40%/7 dat | 40%/2 dat | 60%/7 dat |  |  |  |  |
| 4-{3-[3,5-Bis(trifluoromethyl)phenyl]-3-(trifluoromethyl)-3,4-dihydro-2H-pyrrol-5-yl}-2-methyl-N-(thietan-3-yl)benzamide [Compound 1-19] | 90%/6 dat | 20%/7 dat and 80%/7 dat | 60%/2 dat | 98%/7 dat | 98%/6 dat | 100%/6 dat | 60%/7 dat | 100%/14 dat |
